Test results published in US9624229B2, “Pyrimidine-2-amine compounds and their use as inhibitors of JAK kinases” (Rigel Pharmaceuticals, Inc., priority 2008, dated 2017).

Molecular target: Ba/F3 V617F cells (Homo sapiens, UniProt O60674, V617F, cells depend on it)
Experiment: Proliferation assay (Cell Titer-Glo, 72 h) utilizing Ba/F3 V617F cells
Type: cell-based, mouse
Conditions: Ba/F3 V617F cells, proliferation, level of activity given as class symbol, read-out: IC50 (the source's name)
How it was run: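 Readout is CellTiter-Glo luminescence after 72 h at 37 °C, giving IC50. Cells: Ba/F3 V617F, 1×10^5 cells/mL in RPMI with 10% FBS, treated in duplicate with 3-fold dilution series made from 5 mM DMSO stock, 1:250 in 5% FBS medium, added at 2×.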

Sequence of Ba/F3 V617F cells (O60674 whole entry V617F): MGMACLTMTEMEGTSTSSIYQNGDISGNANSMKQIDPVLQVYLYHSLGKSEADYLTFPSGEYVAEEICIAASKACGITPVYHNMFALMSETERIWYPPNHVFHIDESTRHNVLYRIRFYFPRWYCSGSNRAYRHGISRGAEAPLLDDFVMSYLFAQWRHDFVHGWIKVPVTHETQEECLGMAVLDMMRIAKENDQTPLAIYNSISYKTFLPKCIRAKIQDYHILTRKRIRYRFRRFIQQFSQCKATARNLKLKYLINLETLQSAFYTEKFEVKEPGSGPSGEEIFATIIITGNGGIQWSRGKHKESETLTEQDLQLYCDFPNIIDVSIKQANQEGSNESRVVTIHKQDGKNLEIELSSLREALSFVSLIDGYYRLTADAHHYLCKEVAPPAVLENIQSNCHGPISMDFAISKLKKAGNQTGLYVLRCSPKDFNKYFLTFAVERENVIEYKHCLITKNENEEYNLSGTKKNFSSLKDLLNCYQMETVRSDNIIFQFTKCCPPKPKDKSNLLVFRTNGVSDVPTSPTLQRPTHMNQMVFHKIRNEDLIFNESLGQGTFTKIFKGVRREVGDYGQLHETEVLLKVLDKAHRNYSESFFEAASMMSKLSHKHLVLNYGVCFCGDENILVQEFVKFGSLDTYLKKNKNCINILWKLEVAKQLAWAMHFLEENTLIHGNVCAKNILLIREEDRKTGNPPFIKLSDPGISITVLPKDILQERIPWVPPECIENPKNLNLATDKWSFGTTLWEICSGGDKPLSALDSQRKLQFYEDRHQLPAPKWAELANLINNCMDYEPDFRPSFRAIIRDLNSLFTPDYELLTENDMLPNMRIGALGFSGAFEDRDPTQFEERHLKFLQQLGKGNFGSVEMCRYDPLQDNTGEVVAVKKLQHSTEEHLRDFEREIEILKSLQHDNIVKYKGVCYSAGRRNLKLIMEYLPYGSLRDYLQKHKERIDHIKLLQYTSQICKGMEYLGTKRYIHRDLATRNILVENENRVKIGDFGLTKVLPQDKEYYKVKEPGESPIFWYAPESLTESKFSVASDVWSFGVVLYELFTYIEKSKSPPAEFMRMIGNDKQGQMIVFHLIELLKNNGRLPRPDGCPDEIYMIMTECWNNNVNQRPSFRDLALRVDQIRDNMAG

| Compound | GI50 [µM] |
| --- | --- |
| Cc1cc(Nc2nccc(-c3ccc(N4C[C@@H]5C[C@H]4CO5)nc3)n2)ccc1N1CCN2CCC1CC2 [compound 280, 4-(6-((1S,4S)-2-oxa-5-azabicyclo[2.2.1]heptan-5-yl)pyridin-3-yl)-N-(3-methyl-4-(1,4-diazabicyclo[3.2.2]nonan-4-yl)phenyl)pyrimidin-2-amine] | < 1 |
| Cc1cc(Nc2nccc(-c3ccc(N4CCSCC4)nc3)n2)ccc1N1C[C@@H]2C[C@H]1CN2C [compound 230, 4-(6-(thiamorpholin-4-yl)pyridin-3-yl)-N-(3-methyl-4-((1S,4S)-5-methyl-2,5-diazabicyclo[2.2.1]heptan-2-yl)phenyl)pyrimidin-2-amine] | < 1 |
| CCCNc1ccc(-c2ccnc(Nc3ccc(N4C[C@@H]5C[C@H]4CN5C)c(C)c3)n2)cn1 [compound 188, 4-(6-(propylamino)pyridin-3-yl)-N-(3-methyl-4-((1S,4S)-5-methyl-2,5-diazabicyclo[2.2.1]heptan-2-yl)phenyl)pyrimidin-2-amine] | < 1 |
| Cc1cc(Nc2nccc(-c3ccc4c(c3)CCCC(=O)N4)n2)ccc1N1C[C@@H]2C[C@H]1CN2C [compound 242, 4-(2-oxo-2,3,4,5-tetrahydro-1H-benzo[b]azepin-7-yl)-N-(3-methyl-4-((1S,4S)-5-methyl-2,5-diazabicyclo[2.2.1]heptan-2-yl)phenyl)pyrimidin-2-amine] | < 1 |
| Cc1cc(Nc2nccc(-c3ccc(N4CCOCC4)nc3)n2)ccc1N1C2CCC1CC(N(C)C)C2 (stereo not shown) [compound 286, 4-(6-(morpholin-4-yl)pyridin-3-yl)-N-(3-methyl-4-(3-(dimethylamino)-8-azabicyclo[3.2.1]octan-8-yl)phenyl)pyrimidin-2-amine] | < 1 |
| COCCN(C)c1ccc(-c2ccnc(Nc3ccc(N4C[C@@H]5C[C@H]4CO5)c(C)c3)n2)cn1 [compound 220, 4-(6-(2-methoxyethyl)(methyl)aminopyridin-3-yl)-N-(3-methyl-4-((1S,4S)-5-oxa-2-azabicyclo[2.2.1]heptan-2-yl)phenyl)pyrimidin-2-amine] | < 1 |
| Cc1cc(Nc2nccc(-c3ccc(NCCCN(C)C)nc3)n2)ccc1N1C[C@@H]2C[C@H]1CO2 [compound 203, 4-(6-(3-dimethylamino)propylaminopyridin-3-yl)-N-(3-methyl-4-((1S,4S)-5-oxa-2-azabicyclo[2.2.1]heptan-2-yl)phenyl)pyrimidin-2-amine] | < 1 |
| Cc1cc(Nc2nccc(-c3ccc(N4CCCOCC4)nc3)n2)ccc1N1C[C@@H]2C[C@H]1CO2 [compound 204, 4-(6-(1,4-oxazepan-4-yl)pyridin-3-yl)-N-(3-methyl-4-((1S,4S)-5-oxa-2-azabicyclo[2.2.1]heptan-2-yl)phenyl)pyrimidin-2-amine] | < 1 |

Results, then the compound that gave them:

| GI50 [µM] | Compound |
| --- | --- |
| < 1 | CC(=O)N1C[C@@H]2C[C@H]1CN2c1ccc(Nc2nccc(-c3cnc4c(c3)OC(C)(C)C(=O)N4)n2)cc1C [compound 251, 4-(2,2-dimethyl-3-oxo-3,4-dihydro-2H-pyrido[3,2-b][1,4]oxazin-7-yl)-N-(3-methyl-4-((1S,4S)-5-acetyl-2,5-diazabicyclo[2.2.1]heptan-2-yl)phenyl)pyrimidin-2-amine] |
| < 1 | CCOCCCNc1ccc(-c2ccnc(Nc3ccc(N4C[C@@H]5C[C@H]4CO5)c(C)c3)n2)cn1 [compound 200, 4-(6-(3-ethoxypropyl)aminopyridin-3-yl)-N-(3-methyl-4-((1S,4S)-5-oxa-2-azabicyclo[2.2.1]heptan-2-yl)phenyl)pyrimidin-2-amine] |
| < 1 | Cc1cc(Nc2nccc(-c3ccc(N4C[C@@H]5C[C@H]4CO5)nc3)n2)ccc1N1C[C@@H]2C[C@H]1CN2C [compound 215, 4-(6-((1S,4S)-2-oxa-5-azabicyclo[2.2.1]heptan-5-yl)pyridin-3-yl)-N-(3-methyl-4-((1S,4S)-5-methyl-2,5-diazabicyclo[2.2.1]heptan-2-yl)phenyl)pyrimidin-2-amine] |
| < 1 | Cc1cc(Nc2nccc(-c3ccc4c(c3)CCCC(=O)N4)n2)ccc1N1C[C@@H]2C[C@H]1CN2S(C)(=O)=O [compound 243, 4-(2-oxo-2,3,4,5-tetrahydro-1H-benzo[b]azepin-7-yl)-N-(3-methyl-4-((1S,4S)-5-methylsulfonyl-2,5-diazabicyclo[2.2.1]heptan-2-yl)phenyl)pyrimidin-2-amine] |
| < 1 | CCCNc1ccc(-c2ccnc(Nc3ccc(N4C[C@@H]5C[C@H]4CN5S(C)(=O)=O)c(C)c3)n2)cn1 [compound 238, 4-(6-(propylamino)pyridin-3-yl)-N-(3-methyl-4-((1S,4S)-5-methylsulfonyl-2,5-diazabicyclo[2.2.1]heptan-2-yl)phenyl)pyrimidin-2-amine] |
| < 1 | Cc1cc(Nc2nccc(-c3ccc(N4C[C@@H]5C[C@H]4CO5)nc3)n2)ccc1N1C[C@@H]2C[C@H]1CN2S(C)(=O)=O [compound 264, 4-(6-((1S,4S)-2-oxa-5-azabicyclo[2.2.1]heptan-5-yl)pyridin-3-yl)-N-(3-methyl-4-((1S,4S)-5-(methylsulfonyl)-2,5-diazabicyclo[2.2.1]heptan-2-yl)phenyl)pyrimidin-2-amine] |

Same assay, conditions: Ba/F3 V617F cells, proliferation, level of activity to inhibit JAK2, read-out: IC50 (the source's name)

| Compound | GI50 [µM] |
| --- | --- |
| CN1C[C@@H]2C[C@H]1CN2c1ccc(Nc2nccc(-c3cnc4c(c3)OC(C)(C)C(=O)N4)n2)cc1C#N [compound 53, 4-(2,2-dimethyl-3-oxo-3,4-dihydro-2H-pyrido[3,2-b][1,4]oxazin-7-yl)-N-(3-cyano-4-((1S,4S)-5-methyl-2,5-diazabicyclo[2.2.1]heptan-2-yl)phenyl)pyrimidin-2-amine] | < 1 |
| Cc1cc(Nc2nccc(-c3ccc(N4CCOCC4)nc3)n2)ccc1N1C2CCC1CC2 [compound 110, 4-(6-(morpholin-4-yl)pyridin-3-yl)-N-(3-methyl-4-(7-azabicyclo[2.2.1]heptan-7-yl)phenyl)pyrimidin-2-amine] | 1 to 10 |
| CCNC(=O)N1C[C@@H]2C[C@H]1CN2c1ccc(Nc2nccc(-c3ccc(N4CCOCC4)nc3)n2)cc1C [compound 26, 4-(6-(morpholin-4-yl)pyridin-3-yl)-N-(3-methyl-4-((1S,4S)-5-((ethylamino)carbonyl)-2,5-diazabicyclo[2.2.1]heptan-2-yl)phenyl)pyrimidin-2-amine] | < 1 |
| CN1C2CCC1CN(c1ccc(Nc3nccc(-c4ccc(N)nc4)n3)cc1)C2 [compound 158, 4-(6-aminopyridin-3-yl)-N-(4-(8-methyl-3,8-diazabicyclo[3.2.1]octan-3-yl)phenyl)pyrimidin-2-amine] | < 1 |
| CN1CC2(C)CN(c3ccc(Nc4nccc(-c5ccc(N6CCOCC6)nc5)n4)cc3F)CC(C)(C1)C2 [compound 85, 4-(6-(morpholin-4-yl)pyridin-3-yl)-N-(3-fluoro-4-(1,5,7-trimethyl-3,7-diazabicyclo[3.3.1]nonan-3-yl)phenyl)pyrimidin-2-amine] | < 1 |

Second part, the compound after the results:

| GI50 [µM] | Compound |
| --- | --- |
| < 1 | Cc1cc(Nc2nccc(-c3cnc(N4CCOCC4)nc3)n2)ccc1N1C[C@@H]2C[C@H]1CN2C [compound 41, 4-(2-(morpholin-4-yl)pyrimidin-5-yl)-N-(3-methyl-4-((1S,4S)-5-methyl-2,5-diazabicyclo[2.2.1]heptan-2-yl)phenyl)pyrimidin-2-amine] |
| < 1 | Cc1cc(Nc2nccc(-c3cnc4c(c3)OC(C)(C)C(=O)N4)n2)ccc1N1CC2CCC(C1)N2C [compound 165, 4-(2,2-dimethyl-3-oxo-3,4-dihydro-2H-pyrido[3,2-b][1,4]oxazin-7-yl)-N-(3-methyl-4-(8-methyl-3,8-diazabicyclo[3.2.1]octan-3-yl)phenyl)pyrimidin-2-amine] |
| 1 to 10 | CN(C)c1nc(-c2ccnc(Nc3ccc(N4C[C@@H]5C[C@H]4CN5C)c(F)c3)n2)cs1 [compound 176, 4-(2-(dimethylamino)thiazol-4-yl)-N-(3-fluoro-4-((1S,4S)-5-methyl-2,5-diazabicyclo[2.2.1]heptan-2-yl)phenyl)pyrimidin-2-amine] |
| < 1 | Cc1cc(Nc2nccc(-c3ccc4nccn4c3)n2)ccc1N1CCN2CCC1C2 (stereo not shown) [compound 123, 4-(imidazo[1,2-a]pyridin-6-yl)-N-(3-methyl-4-(1,4-diazabicyclo[3.2.1]octan-4-yl)phenyl)pyrimidin-2-amine] |
| 1 to 10 | Cc1cc(Nc2nccc(-c3ccc(C(=O)NC4=NCCS4)cc3)n2)ccc1N1C[C@@H]2C[C@H]1CN2C [compound 45, 4-(4-(4,5-dihydrothiazol-2-ylcarbamoyl)phenyl)-N-(3-methyl-4-((1S,4S)-5-methyl-2,5-diazabicyclo[2.2.1]heptan-2-yl)phenyl)pyrimidin-2-amine] |
| < 1 | Cc1cc(Nc2nccc(-c3ccc(N4CCOCC4)nc3)n2)ccc1N1CCN2CCC1C2 (stereo not shown) [compound 120, 4-(6-(morpholin-4-yl)pyridin-3-yl)-N-(3-methyl-4-(1,4-diazabicyclo[3.2.1]octan-4-yl)phenyl)pyrimidin-2-amine] |

Same assay, conditions: inhibition of JAK2 activity, proliferation of Ba/F3 V617F cells, read-out: IC50 (the source's name)

| GI50 [µM] | Compound |
| --- | --- |
| > 20 | Cc1cc(Nc2nccc(-c3ccc(NS(C)(=O)=O)nc3)n2)cnc1N1C[C@@H]2C[C@H]1CN2C [compound 154, 4-(6-(methylsulfonylamino)pyridin-3-yl)-N-(5-methyl-6-((1S,4S)-5-methyl-2,5-diazabicyclo[2.2.1]heptan-2-yl)pyridin-3-yl)pyrimidin-2-amine] |
| 1 to 10 | Cc1cc(Nc2nccc(-c3ccc(NC(=O)NC4CC4)cc3)n2)cnc1N1C[C@@H]2C[C@H]1CN2C [compound 140, 4-(4-(3-cyclopropylureido)phenyl)-N-(5-methyl-6-((1S,4S)-5-methyl-2,5-diazabicyclo[2.2.1]heptan-2-yl)pyridin-3-yl)pyrimidin-2-amine] |
| 1 to 10 | Cc1cc(Nc2nccc(-c3ccc(N4CCOCC4)nc3)n2)cnc1N1C[C@@H]2C[C@H]1CN2C [compound 66, 4-(6-(morpholin-4-yl)pyridin-3-yl)-N-(5-methyl-6-((1S,4S)-5-methyl-2,5-diazabicyclo[2.2.1]heptan-2-yl)pyridin-3-yl)pyrimidin-2-amine] |
